Patent publication US4435404A, “Carbostyril derivatives” (priority 1980, dated 1984)

What was measured:
bastard dog = test: Increasing effect of cerebral blood flow; type: in vivo; details: dosage 100 μg/kg, profunda femoris vein
Method: Thus, a bastard dog (male, 12-20 kg of body weight) was fixed in a prone (position) and was anesthetized with 20 mg/kg of pentobarbital sodium and made forced breathing to kept the frequency of respiration at 20 times/minutes. Then, the skull was bared and the surface bone was removed to expose the venous sinus by using grinder and the venous blood was took out from the venas which was cannulizated. The amount of venous blood flow was measured by using an electromagnetic blood flow meter and next measured by using drop-counter by measuring the number of drops of blood per 10 seconds.
The increasing effect of cerebral blood flow was calculated by comparing the number of blood drops in 30 seconds at the peak of increasement shown before and after the administration of compound to be tested. The each of compounds to be tested was dissolved in dimethylformamide and diluted with physiological saline solution and administered through a cannule being inserted into the profunda femoris vein.

[1] = system: ADP-induced aggregation in rabbit platelet; test: Inhibition effect on ADP-induced aggregation in rabbit platelet; type: cell-based; details: Oryctolagus cuniculus, Platelet
Method in brief: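 Aggregation was followed by transmittance at 37 °C with 1,100 rpm stirring, using rabbit PRP preincubated 1 min with test compound. Inhibition was expressed relative to controls, with aspirin as comparator.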

O=C(CCCOc1ccc2[nH]c(=O)ccc2c1)N(CCO)C1CCCCC1 [No. 1, 6-{3-[N-(2-hydroxyethyl)-N-cyclohexylaminocarbonyl]propoxy}carbostyril]
Increasing effect of cerebral blood flow (bastard dog): 89.8%
inhibition at 100 µM ([1]; concentration of the test compound solution 10^-4 mole): 100%
inhibition at 10 µM ([1]; concentration of the test compound solution 10^-5 mole, read-out: Inhibition effect on ADP-induced aggregation): 86%
inhibition at 1 µM ([1]; concentration of the test compound solution 10^-6 mole, read-out: Inhibition effect on ADP-induced aggregation): 45%
